# Literature values in PMC9959244, “Revisiting the Solubility–Permeability Relationship with Hydrophobic Drug Umifenovir in Pluronic Solutions: Impact of pH and Co-Solvent” (Pharmaceutics, 2023).
# Like-named read-outs stand apart in the source and are kept apart here.
# Assays:
# [1] = design: method as in PMID 33926020; conditions: kneaded ternary complex with β-cyclodextrin and 1% poloxamer 188; cited from earlier work
# [2] = design: method as in doi:10.1016/S1773-2247(07)50022-5; conditions: cited from earlier work
compound,measurement,setting,value
CCOC(=O)c1c(CSc2ccccc2)n(C)c2cc(Br)c(O)c(CN(C)C)c12.Cl [arbidol hydrochloride],Solubility increase,[1],13.1 fold
same,Increase of dissolution at 3 min vs pure compound,[2]; solid dispersion with PEG 4000,14.0 fold
same,Percent concentration after 3 min of dissolution,[2]; solid dispersion with PEG 4000,53.6%
same,Increase of dissolution at 3 min vs pure compound,[2]; solid dispersion with PEG 8000,15.4 fold
same,Percent concentration after 3 min of dissolution,[2]; solid dispersion with PEG 8000,59.0%
